Reference: patent US20250082600A1, “TREATING HAEMATOLOGICAL MALIGNANCIES BY MEANS OF SATRAPLATIN” (PHARMA& SCHWEIZ GMBH, priority 2022, published 2025)

Columns and labels:
[1] = tested on: hormone refractory prostate cancer patients (HRPC); details: monotherapy; cited from earlier work
OCI-LY3 cell line = assay: CTG cell viability assay, OCI-LY3; type: cell-based, human
Method: (§1) Cell lines and reagents. All cell lines were cultured in appropriate media supplemented with 10-15% fetal bovine serum (Cat #FND500, ExCell Bio, China) at a temperature of 37° C., 5% CO2 and 95% humidity. Cell viability was measured using the CTG Luminescent Cell Viability Assay (Promega, Madison, WI, USA) by standard procedures as described below. Satraplatin was purchased from MedChemExpress (Shanghai, PRC) and cisplatin from Qilu Pharm (Jinan, Shandong, PRC), respectively. 1 mM stock solutions of both drugs were established for storage at −20° C. as previously described (5).
(§2) Determination of the half maximal inhibition concentration (IC50). Cells were harvested during the logarithmic growth period and cell numbers counted using Count-star (Inno-Alliance Biotech, USA). Cell density was adjusted to 4.44×10^4 cells/mL with the respective culture medium. […] The test plate was incubated for 72 h in the humidified incubator at 37° C. with 5% CO2, and then evaluated using CTG cell viability assay (Promega). […] Luminescence was recorded using EnVision Multi Label Reader (Perkin Elmer, Richmond, CA, USA).
(§3) Data Analysis. The data were analyzed and visualized using GraphPad Prism 5.0 (GraphPad Software, San Diego, CA, USA) and Think-Cell 11 (Think-Cell Software, Berlin, Germany). […] The absolute IC50 was calculated according to the dose-response curve generated by GraphPad Prism 5.0. […]

[2] = tested on: lymphoma cell lines harboring gene copy number deletions in the 9p21 locus; assay: Satraplatin sensitivity versus DNA copy number deletion; type: cell-based, human; details: MTAP/CDKN2A/CDKN2B/DMRTA1 deletions
Method: as §2, with “medium. Then, 90 μL cell suspensions were added in triplicate to a 96-well plate with the final cell density of 4×10^3 cells/well.” for “medium.”, “(Promega). For that purpose, plates were equilibrated at room temperature for approximately 30 min. Then, 50 μL CTG reagent was added to each well.” for “(Promega).”
(§4) Data Analysis. The data were analyzed and visualized using GraphPad Prism 5.0 (GraphPad Software, San Diego, CA, USA) and Think-Cell 11 (Think-Cell Software, Berlin, Germany). […] The formula for calculating the cell survival rate was: Cell survival (%) at Cx=(Cx−M)/(N−M)×100%, Cx being the luminescence signal of cells cultured with any concentration of the test compound, M being the luminescence signal of the blank control (with no cells) and N being the vehicle control with culture medium containing 0.25% (v/v) dimethyl sulfoxide. […]

OCI-LY7 cells = assay: CTG cell viability assay, OCI-LY7; type: cell-based, human
Method: as §1, §2, §3

[3] = tested on: MTAP deficient cell lines; assay: Satraplatin IC50 plotted against MTAP status; type: cell-based, human
Method: as §1, §2, §3

CTCL cell line HUT78 = assay: CTG cell viability assay, HUT78; type: cell-based, human
Method: as §1, §2, §3

DLBCL cell lines = assay: CTG cell viability assay, DLBCL cell lines; type: cell-based, human; details: DLBCL and its respective cell lines
Method: as §1, §2, §3

BCL2 expression = details: cited from earlier work
[4] = tested on: hematological malignancies (n=44) cell lines; assay: CTG cell viability assay, hematological malignancy cell lines; type: cell-based, human
Method: as §1
as §2, with “medium. Then, 90 μL cell suspensions were added in triplicate to a 96-well plate with the final cell density of 4×10^3 cells/well.” for “medium.”, “(Promega). For that purpose, plates were equilibrated at room temperature for approximately 30 min. Then, 50 μL CTG reagent was added to each well.” for “(Promega).”
as §4, with “sulfoxide. The absolute IC50 was calculated according to the dose-response curve generated by GraphPad Prism 5.0.” for “sulfoxide.”

[5] = cited from earlier work
66 cancer cell lines = assay: CTG cell viability assay, 66 cancer cell lines (AUC); type: cell-based, human; details: for activity (AUC) in hematological malignancies compared to solid organ cancers: ANOVA p-value=2.3e-08
Method: as §1
as §2, with “medium. Then, 90 μL cell suspensions were added in triplicate to a 96-well plate with the final cell density of 4×10^3 cells/well.” for “medium.”, “(Promega). For that purpose, plates were equilibrated at room temperature for approximately 30 min. Then, 50 μL CTG reagent was added to each well.” for “(Promega).”
as §4, with “sulfoxide. The absolute IC50 was calculated according to the dose-response curve generated by GraphPad Prism 5.0.” for “sulfoxide.”

CC(=O)[O][Pt]([NH2])([Cl])([Cl])([NH]C1CCCCC1)[O]C(C)=O [satraplatin, bis (acetato) ammine dichloro (cyclohexylamine) platinum (IV)]
objective response rate [1]: up to 31% | cell killing (OCI-LY3 cell line): killed very efficiently | activity compared with cisplatin (OCI-LY3 cell line; p-value of 0.0006): significantly more active than cisplatin | activity on cell lines with 9p21 copy number deletions [2]: more active | killing compared to cisplatin (OCI-LY7 cells): significantly superior | activity in MTAP deleted hematopoietic cell lines [3]: high activity | IC50 (CTCL cell line HUT78): low-micromolar | IC50 values (DLBCL cell lines): low micromolar or even sub-molar | effectiveness in contrast to oxaliplatin (BCL2 expression): significantly more effective | reduction of BCL2 expression (BCL2 expression; independently of P53 mutational status): up to 13 fold | activity grouped by histology ([4]; DLBCL, T-cell lymphoma, MCL, MM and Burkitt lymphoma cell lines): high activity | IC50 values ([4]; group of hematologic malignancies, 72 h, CTG): low to sub micromolar levels | activity compared with standard cisplatin ([4]; within the group of hematologic malignancies, p-value=0.009, FIG. 2): significantly more active | access to the cerebrospinal fluid [5]: access the cerebrospinal fluid at sufficient dose levels | activity (AUC) in hematological malignancies compared to solid organ cancers (66 cancer cell lines): significant higher activity in haematopoietic & lymphoid malignancies | activity (AUC) in hematological malignancies compared to solid organ cancers (66 cancer cell lines; listed as Satraplatin): significantly more active in hematological malignancies | median AUC value across all tested cell lines (66 cancer cell lines; area under dose-response curve, 72 h, CTG, FIG. 1): 2.35
